MIC, MBC and tolerated dose data for 1 molecule are collected here from PMC8597734 (Antimicrobial Agents and Chemotherapy, 2021).

The subject of data set [1] is M. abscessus subsp. bolletii M506. The data set can be described thus: microbe, parasite or virus in culture. Particulars: Mycobacteroides abscessus, 72 h. In kind it is cell-based, Mycobacterium abscessus.
Data set [2] relates to nutrient-starved, nonreplicating M. abscessus Bamboo. Kind of data set: MBC determination under nutrient-starved conditions. The format is cell-based, Mycobacterium abscessus. Particulars: 48 h drug exposure. As to the method: The determination of drug bactericidal activity against nutrient-starved M. abscessus cultures was performed as previously described ([52]). […] Washed culture was then diluted with PBS/Tyloxapol to OD600 = 0.2 (1.8 × 10^7 CFU/ml). […] Appropriate concentrations of drugs up to 100 μM were added to the tubes prior to incubation at 37°C on a tilted rack in an orbital shaker at 220 rpm.

The test system of data set [3] is M. abscessus subsp. abscessus M337. Kind of data set: microbe, parasite or virus in culture. In kind it is cell-based, Mycobacterium abscessus. Particulars: Mycobacteroides abscessus, 72 h.
Data set [4] can be described thus: Tolerability in mice. In kind it is in vivo, mouse. Particulars: tolerated at doses up to.
Data set [5] relates to M. abscessus subsp. abscessus ATCC 19977. Kind of data set: microbe, parasite or virus in culture. In kind it is cell-based, Mycobacterium abscessus. Particulars: Mycobacteroides abscessus.
In data set [6] the test system is M. abscessus subsp. massiliense M111. The data set can be described thus: microbe, parasite or virus in culture. The format is cell-based, Mycobacterium abscessus. Particulars: Mycobacteroides abscessus, 72 h.
The test system of data set [7] is M. abscessus Bamboo RM2 (GyrA D91N). The data set can be described thus: microbe, parasite or virus in culture. In kind it is cell-based, Mycobacterium abscessus.

For orientation: MBC means the smallest concentration meeting the test's criterion for killing.

Values after ≈ are worked out from the molar mass of the structure shown. Read-outs that look alike come from different tables or passages of the source.

For `COc1cnc2ccc(=O)n(CCN3CCC(NCc4cnc(CO)c(Cl)c4)CC3)c2c1` [EC/11716], the MIC in data set [1] was 5.2 µM (≈ 2.38 µg/mL); in data set [3], 2.4 µM (≈ 1.1 µg/mL); in data set [5] (ATCC19977), 1.9 µM (≈ 0.87 µg/mL); in data set [5] (ATCC19977, 72 h) it was 1.8 µM (≈ 0.824 µg/mL); in data set [6] it was 4.9 µM (≈ 2.24 µg/mL); in data set [7], greater than 100 µM. Also, the MIC in data set [7] (Mycobacteroides abscessus) is greater than 100 µM. Besides, the MBC in data set [2] and in data set [2] (Mycobacteroides abscessus) was greater than 100 µM throughout. Moreover, the tolerated dose entry in data set [4] is “up to 550 mg/kg”.
